From article PMC3920478, “Small molecule-mediated refolding and activation of myosin motor function” (eLife, 2014) come the findings set out here.

“Also recorded” adds a separate entry of the source.

Data set [1] addresses T1, β-cardiac myosin (Sus scrofa, UniProt P79293). The data set can be described thus: Heat stress protection, storage and refolding of myosin. The data set is classed as biochemical, Porcine. The note with it: for Competence to bind nucleotide (mantATP amplitude) preserved: 25 μM EMD 57033. Here is the method: The fraction of myosin that is able to bind mantATP drops to below 32% when the temperature is raised to 49°C for more than 5 min. Incubation for 10 min at 51°C removes the myosin completely and irreversibly from the soluble fraction. […] Moreover, based on the amplitude of the rise in mantATP fluorescence, the competence of β-cardiac myosin to bind nucleotide is preserved to more than 91% after 5-min incubation at 49°C and to approximately 82% after 10-min incubation at 49°C (Figure 4B). […] This view is supported by experiments that monitor the recovery of basal activity over a 2 hr period (Figure 4C). To obtain more detailed information about the kinetics of the EMD 57033-mediated refolding reaction, we performed three sets of experiments recording the time and concentration dependence of EMD 57033-mediated increases in the fraction of myosin molecules that are able to undergo nucleotide induced conformational changes, hydrolyze ATP, and produce movement in the in vitro motility assay.
Changes in intrinsic protein fluorescence are tightly linked to ATP binding and ATP-induced conformational changes in the myosin motor domain ([Batra and Manstein, 1999]). […] The dependence of the kobs values on the incubation time was best fit by a hyperbola (Figure 4E). […] The slope defines a value of 0.02 × 10^-3 μM^−1 s^−1 for the second order rate constant for the EMD 57033-mediated refolding reaction (Figure 4H).
Target sequence in this assay (P79293 1-778 limits assumed): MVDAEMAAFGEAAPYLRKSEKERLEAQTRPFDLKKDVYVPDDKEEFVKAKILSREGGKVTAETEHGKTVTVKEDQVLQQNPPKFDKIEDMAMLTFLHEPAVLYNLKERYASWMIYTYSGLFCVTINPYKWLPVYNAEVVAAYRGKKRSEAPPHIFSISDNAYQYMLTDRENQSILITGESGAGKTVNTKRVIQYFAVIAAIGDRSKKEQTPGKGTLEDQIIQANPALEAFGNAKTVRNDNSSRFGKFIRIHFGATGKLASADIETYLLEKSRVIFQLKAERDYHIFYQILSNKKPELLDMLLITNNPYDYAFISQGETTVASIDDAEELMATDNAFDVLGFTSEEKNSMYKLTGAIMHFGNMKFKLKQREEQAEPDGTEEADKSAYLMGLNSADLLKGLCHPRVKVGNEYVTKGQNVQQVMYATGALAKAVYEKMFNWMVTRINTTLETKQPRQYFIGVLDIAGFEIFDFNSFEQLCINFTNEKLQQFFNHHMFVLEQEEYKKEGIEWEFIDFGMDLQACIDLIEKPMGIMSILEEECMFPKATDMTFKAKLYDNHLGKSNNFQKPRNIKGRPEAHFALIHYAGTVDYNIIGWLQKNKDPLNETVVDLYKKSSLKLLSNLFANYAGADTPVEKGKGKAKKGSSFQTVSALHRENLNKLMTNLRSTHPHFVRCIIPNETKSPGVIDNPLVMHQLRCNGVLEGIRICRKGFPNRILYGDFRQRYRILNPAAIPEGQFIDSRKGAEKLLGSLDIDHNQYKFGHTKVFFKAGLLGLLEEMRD

Data set [2] concerns the target T1, β-cardiac myosin. Description: In vitro motility assay (actin filament sliding). It is filed as biochemical, Porcine. Further details: β-Cardiac myosin-2 (S1, full-length); from tissue; host or cells: porcine cardiac muscle. From the text: (§1) In addition, the fraction of moving filaments increased from <75% to >95%. […] In initial experiments, we determined the minimal concentration of α-actinin molecules that generate sufficient load to stall the movement of actin filaments for a given surface density of myosin heads. […] Next, we generated in vitro motility flow cells with actin filaments held at stall force. […] The time-dependence of the recovery of motile activity is best fit by a hyperbola. A plateau value of 0.4 μm s^−1 is reached after more than 2 hr (Figure 1G).
(§2) Actin-sliding motility was performed at 20°C using an Olympus IX81 (Olympus, Hamburg, Germany) inverted fluorescence microscope as described previously ([Fujita-Becker et al., 2005]). Average sliding velocities were determined from the Gaussian distribution of automatically tracked actin filaments using DiaTrack 3.01 (Semasopht, Chavannes, Switzerland) and Origin 7.0 (OriginLab Corporation, Northampton, MA). Errors indicate standard deviations.
Target sequence in this assay (P79293 whole entry): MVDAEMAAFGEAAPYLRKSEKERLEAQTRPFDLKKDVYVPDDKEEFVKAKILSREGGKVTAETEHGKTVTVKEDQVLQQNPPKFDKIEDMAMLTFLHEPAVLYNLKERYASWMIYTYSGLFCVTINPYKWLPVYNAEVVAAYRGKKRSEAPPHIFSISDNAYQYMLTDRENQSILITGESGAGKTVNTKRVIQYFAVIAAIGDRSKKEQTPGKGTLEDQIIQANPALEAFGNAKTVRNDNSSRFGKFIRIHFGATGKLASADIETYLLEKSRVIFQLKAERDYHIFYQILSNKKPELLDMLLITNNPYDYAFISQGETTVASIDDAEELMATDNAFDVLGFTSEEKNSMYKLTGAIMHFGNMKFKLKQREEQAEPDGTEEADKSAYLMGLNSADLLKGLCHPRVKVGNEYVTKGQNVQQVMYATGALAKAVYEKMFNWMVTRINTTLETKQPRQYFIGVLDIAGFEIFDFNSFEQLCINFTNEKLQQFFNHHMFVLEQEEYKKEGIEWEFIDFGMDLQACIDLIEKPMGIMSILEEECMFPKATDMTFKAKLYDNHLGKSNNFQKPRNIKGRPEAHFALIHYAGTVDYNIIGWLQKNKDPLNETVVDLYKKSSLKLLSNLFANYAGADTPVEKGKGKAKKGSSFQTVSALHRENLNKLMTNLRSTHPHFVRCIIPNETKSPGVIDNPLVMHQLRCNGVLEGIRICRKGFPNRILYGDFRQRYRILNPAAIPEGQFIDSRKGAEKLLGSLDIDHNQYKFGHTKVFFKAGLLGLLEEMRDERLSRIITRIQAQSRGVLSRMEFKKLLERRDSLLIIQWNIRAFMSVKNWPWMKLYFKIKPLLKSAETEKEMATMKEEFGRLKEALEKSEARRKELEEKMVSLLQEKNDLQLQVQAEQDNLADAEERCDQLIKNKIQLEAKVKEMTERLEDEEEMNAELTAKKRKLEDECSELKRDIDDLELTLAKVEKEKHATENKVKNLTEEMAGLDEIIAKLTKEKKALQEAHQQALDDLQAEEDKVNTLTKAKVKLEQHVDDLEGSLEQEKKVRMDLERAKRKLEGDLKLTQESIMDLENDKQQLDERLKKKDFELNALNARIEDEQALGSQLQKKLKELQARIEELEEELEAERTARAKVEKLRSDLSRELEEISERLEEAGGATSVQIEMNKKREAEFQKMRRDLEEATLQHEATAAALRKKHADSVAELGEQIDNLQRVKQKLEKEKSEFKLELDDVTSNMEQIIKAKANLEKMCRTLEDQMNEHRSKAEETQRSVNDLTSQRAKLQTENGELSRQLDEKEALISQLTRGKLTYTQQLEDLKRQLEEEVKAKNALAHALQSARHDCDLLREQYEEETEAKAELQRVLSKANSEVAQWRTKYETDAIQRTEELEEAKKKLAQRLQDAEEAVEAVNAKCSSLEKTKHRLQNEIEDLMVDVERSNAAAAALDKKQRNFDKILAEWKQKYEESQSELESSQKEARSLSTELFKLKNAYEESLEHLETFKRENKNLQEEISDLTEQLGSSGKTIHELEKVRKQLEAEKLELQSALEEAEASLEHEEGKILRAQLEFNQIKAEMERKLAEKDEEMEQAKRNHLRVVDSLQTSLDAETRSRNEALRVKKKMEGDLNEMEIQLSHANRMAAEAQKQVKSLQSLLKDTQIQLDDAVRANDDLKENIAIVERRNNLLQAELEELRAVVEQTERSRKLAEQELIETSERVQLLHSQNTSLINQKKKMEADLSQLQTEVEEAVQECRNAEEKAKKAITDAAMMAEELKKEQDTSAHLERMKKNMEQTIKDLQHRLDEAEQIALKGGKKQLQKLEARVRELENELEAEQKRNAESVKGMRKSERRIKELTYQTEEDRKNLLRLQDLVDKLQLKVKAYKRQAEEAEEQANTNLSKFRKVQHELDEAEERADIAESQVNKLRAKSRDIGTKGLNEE

Data set [3] concerns the target T1, β-cardiac myosin. The data set can be described thus: Frictional loading experiments with α-actinin (force production). It is filed as biochemical, Porcine. Further details: β-Cardiac myosin-2 (S1, full-length); from tissue; host or cells: porcine cardiac muscle.
From the text: as §1
Target sequence in this assay (P79293 whole entry): as above

The target in data set [4] is T2, Dd myosin-2 motor domain (Dictyostelium discoideum, UniProt P08799).
T2 sequence (P08799 1-761 limits assumed): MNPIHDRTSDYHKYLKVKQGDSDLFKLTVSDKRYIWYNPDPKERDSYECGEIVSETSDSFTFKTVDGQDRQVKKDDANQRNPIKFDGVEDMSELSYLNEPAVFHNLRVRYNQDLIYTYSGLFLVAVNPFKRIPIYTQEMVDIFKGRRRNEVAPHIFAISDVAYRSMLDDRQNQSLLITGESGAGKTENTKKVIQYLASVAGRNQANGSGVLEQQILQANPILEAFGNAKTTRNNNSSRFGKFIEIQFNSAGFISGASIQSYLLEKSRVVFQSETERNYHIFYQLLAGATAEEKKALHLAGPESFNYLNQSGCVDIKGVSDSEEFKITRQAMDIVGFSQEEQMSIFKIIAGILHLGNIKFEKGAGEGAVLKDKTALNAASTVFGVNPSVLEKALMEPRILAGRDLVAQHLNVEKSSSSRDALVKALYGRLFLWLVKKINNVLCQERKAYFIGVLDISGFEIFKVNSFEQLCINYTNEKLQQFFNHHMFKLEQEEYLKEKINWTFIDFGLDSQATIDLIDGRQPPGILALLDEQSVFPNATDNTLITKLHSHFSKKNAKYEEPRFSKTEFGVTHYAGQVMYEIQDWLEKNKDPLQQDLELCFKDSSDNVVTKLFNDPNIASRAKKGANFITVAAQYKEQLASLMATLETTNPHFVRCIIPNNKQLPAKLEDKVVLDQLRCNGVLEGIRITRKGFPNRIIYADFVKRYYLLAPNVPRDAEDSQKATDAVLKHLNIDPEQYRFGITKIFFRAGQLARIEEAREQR
The data set can be described thus: In vitro motility assay (actin filament sliding). It is filed as biochemical.
From the text: as §1, §2

[5] abbreviates: 25 μM EMD 57033, 8 µg/ml α-actinin.

`COc1ccc(C(=O)N2CCCc3cc(C4=NNC(=O)SC4C)ccc32)cc1OC` (stereo not shown) [EMD 57033]: in data set [1], the “Shelf life of protein-functionalized surfaces” value is “from a couple of hours to several months”. Besides, the “Shelf life of myosin at 4°C” value in data set [1] (25 µM EMD 57033) is recorded as “extends the shelf life”. For the same compound, the “Competence to bind nucleotide (mantATP amplitude) preserved” value in data set [1] (5-min incubation at 49°C) was “more than 91%”; in data set [1] (10-min incubation at 49°C), “approximately 82%”. The “Recovery of ability to bind mantATP after heat inactivation” value in data set [1] (10 min at 49°C, then 25 µM EMD 57033) was “gradually recovered”. In addition, in data set [1] (heat-treated β-cardiac myosin), the “First order dissociation rate constant for EMD 57033 (y-intercept)” value was determined as 0.00023 s⁻¹. Further, in data set [1] (heat-treated β-cardiac myosin, 10–100 μM EMD 57033), the “Second order rate constant for the EMD 57033-mediated refolding reaction (krescue)” value came out at 20 M⁻¹ s⁻¹. Also, in data set [1] (incubation for 6 hr on ice or at 20°C), the “Recovery of enzymatic activity of fully denatured myosin aggregates” value is reported as “no detectable recovery of enzymatic activity”. Moreover, in data set [1] (preincubation with 25 μM EMD 57033, 10-min incubation), the “Precipitation / solubility of myosin under heat stress” value was “remained in the supernatant over the entire temperature range tested; also recorded: prevents precipitation”. For the same compound, the “Increase of actin filament sliding velocity” value in data set [2] is 1.8 fold; in data set [4] (100 µM EMD 57033), 1.6 fold. In addition, the “Fraction of moving filaments” value in data set [2] (in presence of EMD 57033) is over 95%. The “Plateau value of recovered filament velocity at stall load” value in data set [3] (setting [5]) turned out to be 0.4 μm s^−1. Besides, the “Time to reach plateau of recovered motility” value in data set [3] (setting [5]) was “more than 2 hr”. In addition, the “α-actinin concentration required to stall filament movement” value in data set [3] (in presence of EMD 57033) is at least 12 µg/mL. In addition, in data set [4] (in presence of 100 µM EMD 57033), the “Average sliding velocity of actin filaments” value came to 1.35 ± 0.2 µm s^−1.
